The compounds below were run against WIL-FL (Homo sapiens, UniProt P01721) (assay: Unlabeled LC Protease Sensitivity Assay (proteinase K)). Conditions: small molecule 10 μM, WIL-FL 5 μM, proteinase K 50 nM, 2 hours at 37° C.
Format: biochemical
How it was run: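 WIL-FL light chain (5 μM) in PBS pH 7.4 + 0.02% Pluronic F-127 digested with proteinase K (50 nM) for 2 h at 37 °C with 10 μM compound (1% DMSO). Intact WIL-FL quantified by size-exclusion UPLC (A280). Fold protection = (A_compound−A_vehicle)/(A_no_protease−A_vehicle) from peak areas.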

Row | SMILES | Protection (fold protection of LC from protease)
1 | CCN(CC)c1ccc2c(C)c(CCOC(=O)NCCCN(C)C)c(=O)oc2c1 [Compound 133, 2-(7-(diethylamino)-4-methyl-2-oxo-2H-chromen-3-yl)ethyl (3-(dimethylamino)propyl)carbamate] | B (3 ≤ B < 0.6)
2 | CCN(C)c1ccc2c(C)cc(=O)oc2c1 [Compound 268, 7-(ethyl(methyl)amino)-4-methyl-2H-chromen-2-one] | A (A < 0.3))
3 | CCN(CC)c1ccc2c(C)c(CC(=O)NCCCc3ccccc3)c(=O)oc2c1 [Compound 56, 2-(7-(diethylamino)-4-methyl-2-oxo-2H-chromen-3-yl)-N-(3-phenylpropyl)acetamide] | A (A < 0.3))
4 | CCN(CC)c1ccc2c(C)c(CCN3C(=O)NC4(CCN(S(=O)(=O)c5ccccc5)C4)C3=O)c(=O)oc2c1 (centres unmarked) [Compound 201, 3-(2-(7-(diethylamino)-4-methyl-2-oxo-2H-chromen-3-yl)ethyl)-7-(phenylsulfonyl)-1,3,7-triazaspiro[4.4]nonane-2,4-dione] | B (3 ≤ B < 0.6)
5 | CCN(CC)c1ccc2c(CCCOC(=O)NCc3cccc(C(N)=O)c3)cc(=O)oc2c1 [Compound 302, 3-(7-(diethylamino)-2-oxo-2H-chromen-4-yl)propyl (3-carbamoylbenzyl)carbamate] | A (A < 0.3))
6 | CCN(CC)c1ccc2c(C)c(CCNC(=O)NCc3cnc4ccccc4c3)c(=O)oc2c1 [Compound 288, 1-(2-(7-(diethylamino)-4-methyl-2-oxo-2H-chromen-3-yl)ethyl)-3-(quinolin-3-ylmethyl)urea] | B (3 ≤ B < 0.6)
7 | CCN(CC)c1ccc2c(C)c(CCOC(=O)NCc3cccc(-c4cccnc4)c3)c(=O)oc2c1 [Compound 161, 2-(7-(diethylamino)-4-methyl-2-oxo-2H-chromen-3-yl)ethyl (3-(pyridin-3-yl)benzyl)carbamate] | C (C ≥ 0.6)
8 | Cc1cc(=O)oc2cc(C(=O)Nc3ccc4ccccc4n3)ccc12 [Compound 233, 4-methyl-2-oxo-N-(quinolin-2-yl)-2H-chromene-7-carboxamide] | A (A < 0.3))
9 | CCN(CC)c1ccc2c(C)c(CCOC(=O)N3CC(F)(F)C3)c(=O)oc2c1 [Compound 108, 2-(7-(diethylamino)-4-methyl-2-oxo-2H-chromen-3-yl)ethyl 3,3-difluoroazetidine-1-carboxylate] | A (A < 0.3))
10 | CCN(CC)c1ccc2c(C)c(CCN3C(=O)NC4(CCN(c5nccc(C#N)n5)CC4)C3=O)c(=O)oc2c1 [Compound 190, 2-(3-(2-(7-(diethylamino)-4-methyl-2-oxo-2H-chromen-3-yl)ethyl)-2,4-dioxo-1,3,8-triazaspiro[4.5]decan-8-yl)pyrimidine-4-carbonitrile] | C (C ≥ 0.6)
11 | C#CCN(CC)c1ccc2c(C)cc(=O)oc2c1 [Compound 271, 7-(ethyl(prop-2-yn-1-yl)amino)-4-methyl-2H-chromen-2-one] | A (A < 0.3))
12 | CCN(CC)c1ccc2c(C)c(CCC(=O)NCCCN(C)C)c(=O)oc2c1 [Compound 68] | A (A < 0.3))
13 | C#CCNc1ccc2c(C)cc(=O)oc2c1 [Compound 249, 4-methyl-7-(prop-2-yn-1-ylamino)-2H-chromen-2-one] | A (A < 0.3))
14 | Cc1cc(=O)oc2cc(C(=O)Nc3ccnc4ccccc34)ccc12 [Compound 234, 4-methyl-2-oxo-N-(quinolin-4-yl)-2H-chromene-7-carboxamide] | A (A < 0.3))
15 | CCN(CC)c1ccc2c(CCCOC(=O)NCc3cccc(-c4c[nH]cn4)c3)cc(=O)oc2c1 [Compound 304, 3-(7-(diethylamino)-2-oxo-2H-chromen-4-yl)propyl (3-(1H-imidazol-4-yl)benzyl)carbamate] | A (A < 0.3))
16 | CCN(CC)c1ccc2c(C)c(CCN3C(=O)NC4(CCN(C(=O)c5ncccn5)C4)C3=O)c(=O)oc2c1 (centres unmarked) [Compound 205, 3-(2-(7-(diethylamino)-4-methyl-2-oxo-2H-chromen-3-yl)ethyl)-7-(pyrimidine-2-carbonyl)-1,3,7-triazaspiro[4.4]nonane-2,4-dione] | B (3 ≤ B < 0.6)
17 | CCNc1ccc2c(C)cc(=O)oc2c1 [Compound 270, 7-(ethylamino)-4-methyl-2H-chromen-2-one] | A (A < 0.3))
18 | Cc1cc(=O)oc2cc(OC(C)c3ccncc3)ccc12 (centres unmarked) [Compound 172, 4-methyl-7-(1-(pyridin-4-yl)ethoxy)-2H-chromen-2-one] | A (A < 0.3))
19 | Cc1cc(=O)oc2cc(OCCC(C)c3ccccc3)ccc12 (centres unmarked) [Compound 46, 4-methyl-7-(3-phenylbutoxy)-2H-chromen-2-one] | A (A < 0.3))

Row | SMILES | Protection (fold protection of LC from protease)
20 | CCN(CC)c1ccc2c(C)c(CCN3C(=O)NC4(CCN(C(=O)c5ccc[nH]c5=O)C4)C3=O)c(=O)oc2c1 (centres unmarked) [Compound 182, 3-(2-(7-(diethylamino)-4-methyl-2-oxo-2H-chromen-3-yl)ethyl)-7-(2-oxo-1,2-dihydropyridine-3-carbonyl)-1,3,7-triazaspiro[4.4]nonane-2,4-dione] | B (3 ≤ B < 0.6)
21 | CCN(CC)c1ccc2c(C)c(CCOC(=O)NCc3cccc(NC(C)=O)c3)c(=O)oc2c1 [Compound 117, 2-(7-(diethylamino)-4-methyl-2-oxo-2H-chromen-3-yl)ethyl (3-acetamidobenzyl)carbamate] | C (C ≥ 0.6)
22 | Cc1c(CN2CCOCC2)c(=O)oc2cc(OCC(C)c3ccccc3)ccc12 (centres unmarked) [Compound 183, 4-methyl-3-(morpholinomethyl)-7-(2-phenylpropoxy)-2H-chromen-2-one] | B (3 ≤ B < 0.6)
23 | CCN(CC)c1ccc2c(C)c(CCN3C(=O)NC4(CCN(c5nccn6ccnc56)CC4)C3=O)c(=O)oc2c1 [Compound 215, 3-(2-(7-(diethylamino)-4-methyl-2-oxo-2H-chromen-3-yl)ethyl)-8-(imidazo[1,2-a]pyrazin-8-yl)-1,3,8-triazaspiro[4.5]decane-2,4-dione] | C (C ≥ 0.6)
24 | CCN(CC)c1ccc2c(C)c(CCOC(=O)NCC3CCN(C)CC3)c(=O)oc2c1 [Compound 148, 2-(7-(diethylamino)-4-methyl-2-oxo-2H-chromen-3-yl)ethyl ((1-methylpiperidin-4-yl)methyl)carbamate] | B (3 ≤ B < 0.6)
25 | CCN(CC)c1ccc2c(C)c(CCNC(=O)NCc3ccnc4ccccc34)c(=O)oc2c1 [Compound 287, 1-(2-(7-(diethylamino)-4-methyl-2-oxo-2H-chromen-3-yl)ethyl)-3-(quinolin-4-ylmethyl)urea] | A (A < 0.3))
26 | CCN(CC)c1ccc2c(C)c(CCOC(=O)NCCc3ccccn3)c(=O)oc2c1 [Compound 82, 2-(7-(diethylamino)-4-methyl-2-oxo-2H-chromen-3-yl)ethyl (2-(pyridin-2-yl)ethyl)carbamate] | A (A < 0.3))
27 | CCCOc1ccc2c(C)cc(=O)oc2c1 [Compound 33, 4-methyl-7-propoxy-2H-chromen-2-one] | A (A < 0.3))
28 | CCN(CC)c1ccc2c(C)c(CCOC(=O)NCCc3ccncc3)c(=O)oc2c1 [Compound 84, 2-(7-(diethylamino)-4-methyl-2-oxo-2H-chromen-3-yl)ethyl (2-(pyridin-4-yl)ethyl)carbamate] | A (A < 0.3))
29 | CCN(CC)c1ccc2c(C)c(CCOC(=O)NCCCc3ccccc3)c(=O)oc2c1 [Compound 81, 2-(7-(diethylamino)-4-methyl-2-oxo-2H-chromen-3-yl)ethyl (3-phenylpropyl)carbamate] | A (A < 0.3))
30 | Cc1cc(=O)oc2cc(C(=O)Nc3cc(Cl)c(O)c(Cl)c3)ccc12 [Compound 229, N-(3,5-dichloro-4-hydroxyphenyl)-4-methyl-2-oxo-2H-chromene-7-carboxamide] | A (A < 0.3))
31 | C#CCN(CC(=C)C)c1ccc2c(C)cc(=O)oc2c1 [Compound 261, 4-methyl-7-((2-methylallyl)(prop-2-yn-1-yl)amino)-2H-chromen-2-one] | A (A < 0.3))
32 | Cc1cc(=O)oc2cc(C(=O)NCCc3ccc(O)cc3)ccc12 [Compound 232, N-(4-hydroxyphenethyl)-4-methyl-2-oxo-2H-chromene-7-carboxamide] | A (A < 0.3))
33 | Cc1c(CN2CCOCC2)c(=O)oc2cc(OC(C)Cc3ccccc3)ccc12 (centres unmarked) [Compound 184, 4-methyl-3-(morpholinomethyl)-7-((1-phenylpropan-2-yl)oxy)-2H-chromen-2-one] | A (A < 0.3))
34 | CCN(CC)c1ccc2c(C)c(CCC(=O)NCCc3ccccc3F)c(=O)oc2c1 [Compound 71] | A (A < 0.3))
35 | CCN(CC)c1ccc2c(C)c(CCNC(=O)OCc3cccnc3)c(=O)oc2c1 [Compound 100, Pyridin-3-ylmethyl (2-(7-(diethylamino)-4-methyl-2-oxo-2H-chromen-3-yl)ethyl)carbamate] | A (A < 0.3))
36 | C#CCN(C)c1ccc2c(C)cc(=O)oc2c1 [Compound 257, 4-methyl-7-(methyl(prop-2-yn-1-yl)amino)-2H-chromen-2-one] | A (A < 0.3))
37 | CCN(CC)c1ccc2c(C)c(CCOC(=O)NCc3ccc(=O)[nH]c3)c(=O)oc2c1 [Compound 138, 2-(7-(diethylamino)-4-methyl-2-oxo-2H-chromen-3-yl)ethyl ((6-oxo-1,6-dihydropyridin-3-yl)methyl)carbamate] | A (A < 0.3))
38 | Cc1cc(=O)oc2cc(OC(C)c3cccnc3)ccc12 (centres unmarked) [Compound 171, 4-methyl-7-(1-(pyridin-3-yl)ethoxy)-2H-chromen-2-one] | A (A < 0.3))
